Consider four compounds from PMC5430874 (Scientific Reports, 2017).

Positions count from the first letter of the chain named.

In general, Emax refers to the maximal effect, on the per cent scale that the assay sets. For orientation: EC50 means the concentration at which the effect is half-maximal.

One experiment addresses T1, GPR139 F109A^3×33 (Homo sapiens, UniProt Q6DWJ6, F109A).
T1 construct: mGluR5 signal peptide (N); expressed in transfected cells; host or cells: HEK293
T1 sequence (Q6DWJ6 2-353 F109A limits assumed): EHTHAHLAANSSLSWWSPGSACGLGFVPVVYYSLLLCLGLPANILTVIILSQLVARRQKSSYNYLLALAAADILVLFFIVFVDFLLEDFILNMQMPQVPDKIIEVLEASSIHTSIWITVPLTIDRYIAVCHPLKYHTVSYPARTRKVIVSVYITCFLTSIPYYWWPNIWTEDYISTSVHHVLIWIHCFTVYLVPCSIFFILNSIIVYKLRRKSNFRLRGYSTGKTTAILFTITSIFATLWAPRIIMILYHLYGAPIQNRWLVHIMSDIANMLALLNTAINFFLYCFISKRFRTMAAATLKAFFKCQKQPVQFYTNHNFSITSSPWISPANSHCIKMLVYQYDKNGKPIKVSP
Put plainly: Fluo-4 Ca2+-assay, GPR139 mutant F109A. Type of experiment: cell-based. More on the design: key to Emax ± SEM: NE: no effect (loss of activity). The settings on record: for EC50: F109A mutant; for Change of in vitro potency: F109A mutant versus WT, fold decreased. The text has this: (§1) To study the influence of specific amino acids in the predicted binding pocket on receptor function, the desired mutations were introduced into an N-terminally c-myc-tagged wild type human GPR139 (NM_001002911.3) in the pEGFP-N1 vector (BD Biosciences)[32], [33]. As previously described, these plasmids carry the signal peptide of mGluR5 to promote cell surface expression followed by a c-myc epitope to enable detection of total and surface expression by ELISA, followed by an engineered MluI and NotI site for easy insertion of the receptor of interest. Furthermore, the start-codon in the GPR139 sequence was deleted to ensure c-myc-tagging. Mutagenesis was designed in Serial Cloner 2.6 (© Franck Perez [SerialBasics]) and carried out by GenScript (USA). All mutated residues are illustrated in Supplementary Fig. 1b. An untagged GPR139(WT) in pEGFP-N1 was also generated to ensure that the c-myc-tag had no influence on GPR139(WT) function.
(§2) All GPR139 mutants were transfected into HEK293 cells. The HEK293 cells were grown in Dulbecco’s modified Eagle’s medium (DMEM) (Gibco, 41965) supplemented with 10% dialyzed fetal bovine serum (Gibco, 26400, United States origin), 100 units/mL penicillin and 100 μg/mL streptomycin (Gibco, 15140). HEK293 cells were reverse transfected using Lipofectamine2000 (Invitrogen). More specifically two mixtures were made: 1) 10 ng DNA/well + 25 μL Opti-MEM/well and 2) […] Lipofectamine2000/well + 25 μL Opti-MEM/well. The two mixtures were mixed and 50 μL/well was added directly in black 96-well plates with flat clear bottoms for the Fluo-4 Ca^2+-assay (Corning, Falcon, 353219) or in white Opaque 96-well Microplate (PerkinElmer Life, 6005680) for ELISA. 100 μL containing 20,000 cells were added to each well and incubated 48 hours before assays. All plates were coated with poly-D-lysine.
(§3) Compound 1a (1a) was kindly provided by H. Lundbeck A/S, Denmark. […] Both compounds were dissolved to 20 mM in DMSO (Sigma, D2650) and subsequently diluted in a HEPES buffer (HBSS (Gibco, 14025) supplemented with 20 mM HEPES + 1 mM MgCl2 + 1 mM CaCl2, pH = 7.4) to a final concentration of 0.5% DMSO in the Fluo-4 Ca^2+-assay. The DMSO level was kept constant for all concentrations of both compounds. DMSO was confirmed not to have any activity by itself at this concentration. L-Trp (T0254) and L -Phe (P2126) were obtained from Sigma-Aldrich and dissolved in buffer.
(§4) The Ca^2+ measurements were preformed using the Fluo-4 NW Calcium Assay Kit (Invitrogen, Molecular Probes, F36206) as previously described. Briefly, the Fluo-4 dye loading solution was prepared according to the manufacturer’s instructions by dissolving it in HEPES-buffer supplemented with 2.5 mM probenecid. 50 μL dye loading solution was added to each well. Cells were incubated with the Fluo-4 dye for 60 min at 37 °C, then washed with 100 μL HEPES-buffer. 100 μL HEPES-buffer supplemented with 2.5 mM probenecid was then added to each well and incubated in 10 minutes at 37 °C before measurement. […] Intracellular calcium changes were recorded as indicated on either a NOVOstar (BMG Labtech) at 37 °C with an excitation filter of 485 nm and an emission filters 520 nm or a FlexStation 3 Benchtop Multi-Mode Microplate Reader (Molecular Devices) at 37 °C with an excitation wavelength of 485 nm and emission of 525 nm.
(§5) All pharmacological data have been analyzed by using Prism 6.0 (GraphPad Software Inc., San Diego). Fitting of concentration response curves was performed by non-linear regression log(agonist) vs. response (four parameters). Pooled data are shown with standard error of the mean (S.E.M.) and data showing one representative are shown with standard deviation (S.D.). Changes in potency (pEC50) and span of myc-GPR139(WT) in comparison to untagged GPR139(WT) was statistically analyzed with a paired t-test and significance was accepted at p < 0.05. The ELISA data were normalized to surface expression of myc-GPR139(WT) (100%). […]

The target in another experiment is T2, GPR139 W241H^6×48 (Homo sapiens, UniProt Q6DWJ6, W241H).
T2 construct: mGluR5 signal peptide (N); expressed in transfected cells; host or cells: HEK293
T2 sequence (Q6DWJ6 2-353 W241H limits assumed): T1 sequence (Q6DWJ6 2-353 F109A limits assumed) with A108F, W240H
In words: Fluo-4 Ca2+-assay, GPR139 mutant W241H. The format is cell-based. Also on record: key to Emax ± SEM: NE: no effect (loss of activity). The settings on record: for EC50: W241H mutant.
Excerpt: as §1, §2, §3, §4, §5

Take `C[C@@H](NC(=O)CNC(=O)c1cccc(Cl)c1)c1ccccc1` (racemic) [Compound 7c]: on GPR139 F109A^3×33, the Emax at 100 µM came out at 60 ± 3%, the EC50 is more than 0.1 mM and the “Change of in vitro potency” value is given as more than 2000 fold decreased. On GPR139 W241H^6×48, this compound gave an Emax at 100 µM of 12 ± 3% and an EC50 of more than 0.1 mM.
Regarding `COc1cc(OC)cc(C(=O)NNC(=O)Nc2cccc3ccccc23)c1` [Compound 1a], on GPR139 F109A^3×33, the EC50 is more than 0.00794 mM and the “Change of in vitro potency” value is listed as “Loss of function”. The “Emax ± SEM” value at GPR139 F109A^3×33 (F109A, at 8 μM, normalized to buffer (0%) and 8 μM 1a (100%) on WT) is “NE*”. The compound also gave an EC50 at GPR139 W241H^6×48 of more than 0.00794 mM. The change of potency entry at GPR139 W241H^6×48 (W241H mutant versus WT) is on record as “markedly reduced potency”. Besides, the maximal effect (Emax) at 8 µM at GPR139 W241H^6×48 (W241H, at 8 μM, normalized to buffer (0%) and 8 μM 1a (100%) on WT) came out at 27 ± 10%.
Turning to `N[C@@H](Cc1ccccc1)C(=O)O` [L-Phe, phenylalanine], the EC50 on GPR139 F109A^3×33 and on GPR139 W241H^6×48 was more than 31.6 mM in each case. This compound also showed an Emax at 30000 µM at GPR139 F109A^3×33 (F109A, at 30 mM, normalized to buffer (0%) and 30 mM Phe (100%) on WT) of 60 ± 6%. In addition, the “Emax ± SEM” value at GPR139 W241H^6×48 (W241H, at 30 mM, normalized to buffer (0%) and 30 mM Phe (100%) on WT) is “NE^##”.
Take `N[C@@H](Cc1c[nH]c2ccccc12)C(=O)O` [L-Trp, tryptophan]: the concentration for a half-maximal effect (EC50) at GPR139 F109A^3×33 and on GPR139 W241H^6×48 was more than 10 mM in each case. The same compound showed a maximal effect (Emax) at 10000 µM at GPR139 F109A^3×33 (F109A, at 10 mM, normalized to buffer (0%) and 10 mM Trp (100%) on WT) of 60 ± 10%. Further, the “Emax ± SEM” value at GPR139 W241H^6×48 (W241H, at 10 mM, normalized to buffer (0%) and 10 mM Trp (100%) on WT) is listed as “NE^#”.
